What was measured:
[1] = target: allosteric site of the mGluR5 receptor (Homo sapiens, UniProt P41594); assay: PDSP binding at the allosteric site of the mGluR5 receptor; conditions: binding affinity at allosteric site; type of constant not given
[2] = target: L-type Voltage gated calcium Channel (VGCC) (Rattus norvegicus, UniProt P22002); assay: PDSP binding at the L-type voltage gated calcium channel; conditions: for VGCC (IC50, nM): PDSP screening
L-type Voltage gated calcium Channel (VGCC), sequence (P22002 whole entry): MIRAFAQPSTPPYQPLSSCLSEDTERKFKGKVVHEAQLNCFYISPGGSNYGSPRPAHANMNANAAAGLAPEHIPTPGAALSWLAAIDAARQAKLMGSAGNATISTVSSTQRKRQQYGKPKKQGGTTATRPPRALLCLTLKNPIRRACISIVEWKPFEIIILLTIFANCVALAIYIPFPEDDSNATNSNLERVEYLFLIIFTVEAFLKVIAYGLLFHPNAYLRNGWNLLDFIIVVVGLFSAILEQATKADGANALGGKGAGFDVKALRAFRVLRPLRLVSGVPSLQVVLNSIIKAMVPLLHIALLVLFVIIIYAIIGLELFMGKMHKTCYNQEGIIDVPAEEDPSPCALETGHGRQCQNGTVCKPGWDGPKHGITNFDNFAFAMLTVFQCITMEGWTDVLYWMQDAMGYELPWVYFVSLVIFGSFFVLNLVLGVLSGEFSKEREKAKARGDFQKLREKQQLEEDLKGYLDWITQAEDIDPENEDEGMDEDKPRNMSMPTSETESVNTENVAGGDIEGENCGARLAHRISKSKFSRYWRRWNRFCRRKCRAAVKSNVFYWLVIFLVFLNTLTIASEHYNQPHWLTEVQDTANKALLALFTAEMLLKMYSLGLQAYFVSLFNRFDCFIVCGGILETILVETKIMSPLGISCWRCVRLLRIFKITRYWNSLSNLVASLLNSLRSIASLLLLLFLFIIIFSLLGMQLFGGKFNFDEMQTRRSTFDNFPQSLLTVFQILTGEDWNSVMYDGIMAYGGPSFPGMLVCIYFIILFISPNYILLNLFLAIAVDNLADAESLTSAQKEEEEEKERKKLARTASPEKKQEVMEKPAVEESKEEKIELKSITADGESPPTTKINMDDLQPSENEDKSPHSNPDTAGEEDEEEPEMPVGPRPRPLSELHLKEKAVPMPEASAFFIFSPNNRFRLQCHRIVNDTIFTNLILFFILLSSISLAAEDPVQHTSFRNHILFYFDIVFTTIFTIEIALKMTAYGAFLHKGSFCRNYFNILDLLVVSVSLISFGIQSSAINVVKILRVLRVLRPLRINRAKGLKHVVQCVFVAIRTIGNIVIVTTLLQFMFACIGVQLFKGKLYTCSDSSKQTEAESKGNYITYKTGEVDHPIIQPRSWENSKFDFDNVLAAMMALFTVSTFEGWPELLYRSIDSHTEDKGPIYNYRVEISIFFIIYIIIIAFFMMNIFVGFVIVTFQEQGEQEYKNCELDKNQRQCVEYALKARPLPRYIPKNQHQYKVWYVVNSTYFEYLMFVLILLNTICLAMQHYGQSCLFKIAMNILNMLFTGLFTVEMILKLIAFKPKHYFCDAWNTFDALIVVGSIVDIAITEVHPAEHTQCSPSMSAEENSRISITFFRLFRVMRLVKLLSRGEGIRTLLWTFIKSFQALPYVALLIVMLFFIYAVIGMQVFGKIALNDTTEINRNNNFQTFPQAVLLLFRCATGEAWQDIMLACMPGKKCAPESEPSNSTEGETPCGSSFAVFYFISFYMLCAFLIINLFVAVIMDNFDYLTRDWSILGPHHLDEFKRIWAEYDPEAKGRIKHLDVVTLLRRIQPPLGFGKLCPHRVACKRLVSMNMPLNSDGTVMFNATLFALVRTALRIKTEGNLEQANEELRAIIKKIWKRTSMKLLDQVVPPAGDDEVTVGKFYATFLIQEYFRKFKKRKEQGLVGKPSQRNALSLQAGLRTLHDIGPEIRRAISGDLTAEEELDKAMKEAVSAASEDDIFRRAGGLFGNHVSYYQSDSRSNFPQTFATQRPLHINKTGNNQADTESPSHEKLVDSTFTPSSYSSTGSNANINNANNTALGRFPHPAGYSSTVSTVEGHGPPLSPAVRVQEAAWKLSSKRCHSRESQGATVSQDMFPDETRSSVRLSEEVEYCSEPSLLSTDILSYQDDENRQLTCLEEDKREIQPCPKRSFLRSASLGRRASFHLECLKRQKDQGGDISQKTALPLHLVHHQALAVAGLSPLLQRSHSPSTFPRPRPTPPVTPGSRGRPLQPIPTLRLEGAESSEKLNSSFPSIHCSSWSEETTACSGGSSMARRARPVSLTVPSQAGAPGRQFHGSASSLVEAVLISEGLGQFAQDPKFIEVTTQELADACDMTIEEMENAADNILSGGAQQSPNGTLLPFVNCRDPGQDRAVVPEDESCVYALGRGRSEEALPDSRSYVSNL

allosteric site of the mGluR5 receptor, sequence (P41594 21-1212): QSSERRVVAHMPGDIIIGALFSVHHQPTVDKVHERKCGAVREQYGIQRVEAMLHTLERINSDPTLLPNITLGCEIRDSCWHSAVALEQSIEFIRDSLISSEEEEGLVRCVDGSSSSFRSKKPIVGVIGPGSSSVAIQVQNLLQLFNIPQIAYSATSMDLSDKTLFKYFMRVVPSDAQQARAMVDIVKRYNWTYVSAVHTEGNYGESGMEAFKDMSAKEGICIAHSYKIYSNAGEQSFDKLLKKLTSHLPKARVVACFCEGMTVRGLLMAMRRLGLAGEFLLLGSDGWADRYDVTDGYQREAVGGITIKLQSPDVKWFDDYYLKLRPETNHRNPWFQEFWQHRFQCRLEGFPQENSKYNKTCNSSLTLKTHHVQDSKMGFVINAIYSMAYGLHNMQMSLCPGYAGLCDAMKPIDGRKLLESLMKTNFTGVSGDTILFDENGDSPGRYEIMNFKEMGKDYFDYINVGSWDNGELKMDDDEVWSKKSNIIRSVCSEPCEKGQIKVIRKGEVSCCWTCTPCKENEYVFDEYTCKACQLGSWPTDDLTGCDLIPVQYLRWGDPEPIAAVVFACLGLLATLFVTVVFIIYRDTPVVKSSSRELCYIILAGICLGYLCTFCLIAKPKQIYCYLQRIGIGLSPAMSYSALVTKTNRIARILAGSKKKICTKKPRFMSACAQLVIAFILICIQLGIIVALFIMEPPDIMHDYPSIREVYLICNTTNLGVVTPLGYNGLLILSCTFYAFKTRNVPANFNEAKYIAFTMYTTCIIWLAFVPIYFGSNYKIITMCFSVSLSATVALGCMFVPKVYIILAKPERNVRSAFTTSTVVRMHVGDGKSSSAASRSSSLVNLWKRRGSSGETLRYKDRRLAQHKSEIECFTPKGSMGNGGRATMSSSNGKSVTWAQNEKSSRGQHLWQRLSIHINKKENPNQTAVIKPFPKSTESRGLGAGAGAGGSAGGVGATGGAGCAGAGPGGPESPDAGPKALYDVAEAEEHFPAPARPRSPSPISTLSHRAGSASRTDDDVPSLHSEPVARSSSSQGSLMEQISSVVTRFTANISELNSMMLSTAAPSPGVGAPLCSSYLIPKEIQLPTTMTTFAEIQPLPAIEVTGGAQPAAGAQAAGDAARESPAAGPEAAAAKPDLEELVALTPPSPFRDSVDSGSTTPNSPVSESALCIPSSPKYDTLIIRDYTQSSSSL

Row | SMILES | mGluR5 [1] [µM] | mGluR5 (nM) [1] | also measured
1 | CCOC(=O)C1=C(C)NC(C)=C(C(=O)OCC)C1c1c(-c2ccccc2Br)noc1C [1b, 4-[3-(o-Bromo-phenyl)-5-methyl-isoxazol-4-yl]-2,6-dimethyl-1,4-dihydro-pyridine-3,5-dicarboxylic acid diethyl ester] | 1.524 |  | 
2 | CCOC(=O)C1=C(C)NC(C)=C(C(=O)OCC)C1c1c(-c2cccc(Br)c2)noc1C [1c, 4-[3-(m-Bromo-phenyl)-5-methyl-isoxazol-4-yl]-2,6-dimethyl-1,4-dihydro-pyridine-3,5-dicarboxylic acid diethyl ester] |  | >10,000 nM | 
3 | CCOC(=O)C1=C(C)NC(C)=C(C(=O)OCc2cn(CCOCCOCCOCCOCCOCCn3cc(COC(=O)C4=C(C)NC(C)=C(C(=O)OCC)C4c4c(-c5cccc(Br)c5)noc4C)nn3)nn2)C1c1c(-c2cccc(Br)c2)noc1C (stereo not shown) [4c, 3-[1-(17-{4-[({4-[3-(m-bromophenyl)-5-methyl-1,2-oxazol-4-yl]-5-(ethoxycarbonyl)-2,6-dimethyl-1,4-dihydropyridin-3-yl}carbonyloxy)methyl]-1H-1,2,3-triazol-1-yl}-3,6,9,12,15-pentaoxaheptadecan-1-yl)-1H-1,2,3-triazol-4-yl]methyl 5-ethyl 4-[3-(m-bromophenyl)-5-methyl-1,2-oxazol-4-yl]-2,6-dimethyl-1,4-dihydropyridine-3,5-dicarboxylate] | 8.638 |  | 
4 | CCOC(=O)c1c(C)nc(C)c(C(=O)OCC)c1-c1c(-c2ccccc2)noc1C [compound 6, 2,6-dimethyl-4-(5-methyl-3-phenyl-isoxazol-4-yl)-pyridine-3,5-dicarboxylic acid diethyl ester] |  |  | VGCC (IC50, nM) [2]: essentially bereft of activity
5 | CCOC(=O)C1=C(C)NC(C)=C(C(=O)OCC)C1c1c(-c2ccc(Br)cc2)noc1C [1d, 4-[3-(p-bromo-phenyl)-5-methyl-isoxazol-4-yl]-2,6-dimethyl-1,4-dihydro-pyridine-3,5-dicarboxylic acid diethyl ester] |  | >10,000 nM | VGCC potency ratio of 1d versus o-Br 1b ([2]; fold more potent than 1b): over 25 times
6 | CCOC(=O)C1=C(C)NC(C)=C(C(=O)OCc2cn(CCc3ccccc3)nn2)C1c1c(-c2ccc(Br)cc2)noc1C (stereo not shown) [compound 5, 4-[3-(p-Bromo-phenyl)-5-methyl-isoxazol-4-yl]-2,6-dimethyl-1,4-dihydro-pyridine 3,5-dicarboxylic acid 3-ethyl ester 5-(1-phenethyl-1H-[1,2,3]triazol-4-ylmethyl) ester] | 1.972 |  | 
7 | CCOC(=O)C1=C(C)NC(C)=C(C(=O)OCc2cn(CCOCCOCCOCCOCCOCCn3cc(COC(=O)C4=C(C)NC(C)=C(C(=O)OCC)C4c4c(-c5ccccc5)noc4C)nn3)nn2)C1c1c(-c2ccccc2)noc1C (stereo not shown) [4a, 3-(1-{17-[4-({[5-(Ethoxycarbonyl)-2,6-dimethyl-4-(5-methyl-3-phenyl-1,2-oxazol-4-yl)-1,4-dihydropyridin-3-yl]carbonyloxy}methyl)-1H-1,2,3-triazol-1-yl]-3,6,9,12,15-pentaoxaheptadecan-1-yl}-1H-1,2,3-triazol-4-yl)methyl 5-ethyl 2,6-dimethyl-4-(5-methyl-3-phenyl-1,2-oxazol-4-yl)-1,4-dihydropyridine-3,5-dicarboxylate] |  | >10,000 nM | 
8 | CCOC(=O)C1=C(C)NC(C)=C(C(=O)OCc2cn(CCOCCOCCOCCOCCOCCn3cc(COC(=O)C4=C(C)NC(C)=C(C(=O)OCC)C4c4c(-c5ccccc5Br)noc4C)nn3)nn2)C1c1c(-c2ccccc2Br)noc1C (stereo not shown) [4b, 3-[1-(17-{4-[({4-[3-(o-Bromophenyl)-5-methyl-1,2-oxazol-4-yl]-5-(ethoxycarbonyl)-2,6-dimethyl-1,4-dihydropyridin-3-yl}carbonyloxy)methyl]-1H-1,2,3-triazol-1-yl}-3,6,9,12,15-pentaoxaheptadecan-1-yl)-1H-1,2,3-triazol-4-yl]methyl 5-ethyl 4-[3-(o-bromophenyl)-5-methyl-1,2-oxazol-4-yl]-2,6-dimethyl-1,4-dihydropyridine-3,5-dicarboxylate] | 4.858 |  | VGCC (IC50, nM) [2]: essentially abolished
